Test results reported in ChEMBL document CHEMBL3044750, “Preparation of N-substituted aryl and alkyl carbamates and their inhibitory effect on oat seed germination” (2002).

Key:
Avena sativa [1] = assay: Inhibition of Avena sativa var. Zenshin seed germination assessed as coleoptile length at 1 uM after 6 days (reference value: 9.5 cm); assay type: functional
Avena sativa [2] = assay: Inhibition of Avena sativa var. Zenshin seed germination assessed as root length at 1 uM after 6 days (reference value: 7 cm); assay type: functional

Compound	Activity (Avena sativa [1]) [cm]	Activity (Avena sativa [2]) [cm]
O=C(NCSc1ccccc1)Oc1ccc(Cl)cc1Cl [2,4-DICHLOROPHENYL PHENYLTHIOMETHYLCARBAMATE]	0	0
O=C(Nc1ccccc1)OCCCc1ccccc1 [3-PHENYLPROPYL PHENYLCARBAMATE]	3.5	1.9
O=C(NCSc1ccccc1)OCCCc1ccccc1 [3-PHENYLPROPYL PHENYLTHIOMETHYLCARBAMATE]	4.6	3.9
COc1ccc(COC(=O)NCSc2ccccc2)cc1 [4-METHOXYBENZYL PHENYLTHIOMETHYLCARBAMATE]	1.4	0.9
O=C(Nc1ccccc1)OCCCCc1ccccc1 [4-PHENYLBUTYL PHENYLCARBAMATE]	4.9	1.2
O=C(Nc1ccccc1)OCCCCCc1ccccc1 [5-PHENYLPENTYL PHENYLCARBAMATE]	6.6	2.1
O=C(NCCc1ccccc1)OCc1ccccc1 [BENZYL PHENETHYLCARBAMATE]	5.2	2.8
O=C(Nc1ccccc1)OCc1ccccc1 [BENZYL PHENYLCARBAMATE]	2.8	1.2
O=C(NCSc1ccccc1)OCc1ccccc1 [BENZYL PHENYLTHIOMETHYLCARBAMATE]	0	0
CCCCOC(=O)NCSc1ccccc1 [BUTYL PHENYLTHIOMETHYLCARBAMATE]	2.6	3.4
CC(C)OC(=O)Nc1cccc(Cl)c1 [CHLORPROPHAM]	0	0
O=C(Nc1ccccc1)OC/C=C/c1ccccc1 [CINNAMYL PHENYLCARBAMATE]	3.4	0.4
O=C(NCSc1ccccc1)OC/C=C/c1ccccc1 [CINNAMYL PHENYLTHIOMETHYLCARBAMATE]	2.2	2.6
CCOC(=O)NCSc1ccccc1 [ETHYL PHENYLTHIOMETHYLCARBAMATE]	0.8	1
CC(C)OC(=O)NCSc1ccccc1 [ISOPROPYL PHENYLTHIOMETHYLCARBAMATE]	0	0
COC(=O)NCSc1ccccc1 [METHYL PHENYLTHIOMETHYLCARBAMATE]	0	0
O=C(Nc1ccccc1)OCCc1ccccc1 [PHENETHYL PHENYLCARBAMATE]	0.3	0.2
O=C(NCSc1ccccc1)OCCc1ccccc1 [PHENETHYL PHENYLTHIOMETHYLCARBAMATE]	0	0
O=C(Nc1ccc(Cl)cc1)Oc1ccccc1 [PHENYL 4-CHLOROPHENYLCARBAMATE]	8.1	4.1
O=C(Nc1ccc(F)cc1)Oc1ccccc1 [PHENYL 4-FLUOROPHENYLCARBAMATE]	6.4	4.8
COc1ccc(NC(=O)Oc2ccccc2)cc1 [PHENYL 4-METHOXYPHENYLCARBAMATE]	8.3	7.7
Cc1cccc(NC(=O)Oc2ccccc2)c1 [PHENYL M-TOLYLCARBAMATE]	5.6	4.4
O=C(Nc1ccccc1)Oc1ccccc1 [PHENYL PHENYLCARBAMATE]	4.7	1.9
O=C(NCSc1ccccc1)Oc1ccccc1 [PHENYL PHENYLTHIOMETHYLCARBAMATE]	0	0
CCCOC(=O)NCSc1ccccc1 [PROPYL PHENYLTHIOMETHYLCARBAMATE]	1.7	1.4
